Like-named read-outs stand apart in the source and are kept apart here.
Key:
[1] = target: T1, mPGES-1 (Homo sapiens, UniProt O14684); assay: Cell-free mPGES-1 activity assay (microsomes of IL-1β-stimulated A549 cells, PGE2 formation by RP-HPLC); assay type: biochemical; conditions: for Residual activity of mPGES-1, mean ± SD (%) / remaining activity at 10 µM: compound at 10 μM, percentage of vehicle control (DMSO) = 100%, n = 3; for Residual activity of mPGES-1, mean ± SD (%): 10 µM; for remaining activity at 10 µM: read-out: Residual activity of mPGES-1, mean ± SD (%); for IC50: cell-free, A549 microsomes, read-out: IC50 (µM), mean ± SD for mPGES-1
T1 construct: endogenous in cells; host or cells: A549 cells stimulated with IL-1β; microsomal fraction
T1 sequence (O14684 1-152): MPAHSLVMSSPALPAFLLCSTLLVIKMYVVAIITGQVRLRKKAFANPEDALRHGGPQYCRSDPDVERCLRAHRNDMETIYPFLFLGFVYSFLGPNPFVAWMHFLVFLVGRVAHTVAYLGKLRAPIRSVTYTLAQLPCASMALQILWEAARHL
Experimental: Compounds 1a–f and 2a–d were submitted to a cell‐free assay mPGES‐1^[ [52] ^] to validate the inhibitory activity predicted in silico.
Microsomes of A549 cells containing mPGES‐1 were used as enzyme sources. In brief, A549 cells were stimulated with interleukin‐1β (IL‐1β) (2 ng/mL) for 48 h, harvested, and sonicated. The lysate was first centrifugated at 10,000g (10 min), and then at 174,000g for (1 h) at 4°C. The pellet (microsomal fraction) was resuspended in 1 ml homogenization buffer (0.1 M potassium phosphate buffer, pH = 7.4, 1 mM phenylmethanesulfonyl fluoride, 60 µg/mL soybean trypsin inhibitor, 1 µg/mL leupeptin, 2.5 mM GSH, and 250 mM sucrose), the total protein concentration was determined, and microsomes were diluted in potassium phosphate buffer (0.1 M, pH 7.4) containing GSH (2.5 mM) and seeded in a 96‐well plate. […] After 1 min, the addition of 100 µL of a stop solution (40 mM FeCl3, 80 mM citric acid, and 10 µM 11β‐PGE2) blocked the reaction. PGE2 and 11β‐PGE2 were extracted by solid‐phase extraction, and PGE2 formation was quantified by RP‐HPLC.^[ [52] ^]
mPGES-1 activity assay: Microsomes from A549 cells, which contain the enzyme mPGES-1, were used in an experiment to study the production of PGE2. The A549 cells were first stimulated with IL-1β for 48 hours, then harvested and broken down by sonication. The resulting cell lysate was subjected to two rounds of centrifugation to isolate the microsomal fraction. The microsomes were diluted and placed in a 96-well plate, where they were preincubated with various compounds or a control solution. The production of PGE2 was triggered by adding a substrate, and the reaction was stopped after one minute. PGE2 was then extracted and quantified using HPLC.

[2] = target: T2, human recombinant sEH (Homo sapiens, UniProt P34913); assay: Cell-free sEH activity assay (PHOME fluorescence, inhibitor screening kit); assay type: biochemical; conditions: for remaining activity at 10 µM: compound at 10 μM, percentage of vehicle control (DMSO) = 100%, n = 3, read-out: Residual activity of sEH, mean ± SD (%); for IC50: threefold dilutions from 30,000 to 1.52 nM, read-out: IC50 (µM), mean ± SD for sEH
T2 construct: purchased 10011671
T2 sequence (P34913 1-555): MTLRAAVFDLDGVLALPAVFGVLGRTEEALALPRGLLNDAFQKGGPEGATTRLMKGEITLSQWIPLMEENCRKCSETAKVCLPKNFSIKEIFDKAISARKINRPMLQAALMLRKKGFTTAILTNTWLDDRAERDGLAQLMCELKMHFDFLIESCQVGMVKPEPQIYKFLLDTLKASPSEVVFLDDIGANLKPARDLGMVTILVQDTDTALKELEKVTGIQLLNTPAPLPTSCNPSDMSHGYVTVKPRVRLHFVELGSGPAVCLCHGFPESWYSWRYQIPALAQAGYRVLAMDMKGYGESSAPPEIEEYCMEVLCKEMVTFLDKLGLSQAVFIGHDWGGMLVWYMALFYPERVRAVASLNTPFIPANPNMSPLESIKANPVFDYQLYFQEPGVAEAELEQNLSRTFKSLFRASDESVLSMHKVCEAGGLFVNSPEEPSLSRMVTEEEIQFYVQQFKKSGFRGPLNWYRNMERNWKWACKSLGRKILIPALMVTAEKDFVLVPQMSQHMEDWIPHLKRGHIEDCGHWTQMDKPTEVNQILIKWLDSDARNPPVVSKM
Description: When the epoxide moiety of PHOME is hydrolyzed by the epoxide hydrolase, an intramolecular cyclization occurs, which results in the release of a cyanohydrin under basic conditions. The cyanohydrin quickly decomposes into cyanide ion and the highly fluorescent 6‐Methoxy‐2‐naphthaldehyde, which can be analyzed. The signal was detected (λex 330 nm, λem 465 nm) on an EnSpire™ Multimode Plate Reader (PerkinElmer).
The reaction was initiated by adding a small amount of a no-fluorescent substrate called PHOME. When sEH hydrolyzes PHOME, it triggers a chemical reaction that ultimately produces a fluorescent compound. The fluorescence emitted by this compound was measured using a plate reader, which allowed the researchers to analyze the enzyme activity and determine the effectiveness of the test compounds in inhibiting sEH.

[3] = test system: HCT-116 cells; assay: Cell survival index (MTT assay and cell count) in HCT-116 CRC cells; assay type: cell-based, human; conditions: 48 h of incubation, cell survival index, n = 24, read-out: IC50 ± SD (µM) HCT-116
Experimental: HCT‐116 cells (CCL‐247 ™), an epithelial‐like carcinoma cell line isolated from the colon of an adult with colon cancer, were purchased from ATCC and cultured in Roswell Park Memorial Institute (Invitrogen) supplemented with 10% fetal bovine serum (FBS, Cambrex), L‐glutamine (2 mM, Sigma), penicillin (100 units/mL, Sigma), and streptomycin (100 μg/mL, Sigma), and cultured in a humidified 5% carbon dioxide atmosphere at 37°C, according to ATCC recommendations.^[ [58] ^]
(§1) Bioactivity and cell responses to in vitro treatment with 1f, 2b, 2c, and 2d compounds were investigated through the estimation of a “cell survival index,” arising from the combination of cell viability evaluation with cell counting. The cell survival index is calculated as the arithmetic mean between the percentage values derived from the 3‐(4,5‐dimethyl‐2‐thiazolyl) 2,5‐diphenyl‐2‐H‐tetrazolium bromide (MTT) assay and the automated cell count.^[ [67] ^] HCT‐116 and HaCaT were inoculated in 96‐microwell culture plates at a density of 10^4 cells/well and allowed to grow for 24 h. Subsequently, the culture medium was exchanged with fresh medium, and cells were exposed to different concentrations (0→50 µM) of compounds 1f, 2b−2d under investigation for an additional 48 h. After the treatments, the medium was removed, and the cells were incubated with 20 μL/well of an MTT solution (5 mg/mL MTT, Sigma) for 1 h in a humidified 5% CO2 incubator at 37°C. The incubation was stopped by removing the MTT solution and by adding 100 μL/well of DMSO to solubilize the obtained formazan. Finally, the absorbance was monitored at 550 nm using a microplate reader (iMark microplate reader, Bio‐Rad). Cell number was determined by TC20 automated cell counter (Bio‐Rad), which uses disposable slides, TC20 trypan blue dye (0.4% trypan blue dye w/v in 0.81% sodium chloride and 0.06% potassium phosphate dibasic solution), and a CCD camera to count cells based on the analyses of captured images. The medium was removed, and the cells were collected. Ten microliters of cell suspension, mixed with 0.4% trypan blue solution at a 1:1 ratio, were loaded into the chambers of disposable slides. The results are expressed in terms of total cell count (cell number/mL). […] Total counts and live/dead ratio from random samples for each cell line were subjected to comparisons with manual hemocytometers in control experiments. […] Concentration‐effect curves were obtained with nonlinear regression using GraphPad Prism 8.0 curve‐fitting software.^[ [67] ^]
(§2) Experiments on HTC-116 and HaCat cell lines: The bioactivity and cellular responses to treatment 2d were evaluated by calculating a "cell survival index." This index combines results from cell viability tests (using the MTT assay) and cell counting. HCT-116 and HaCaT cells were grown in 96-well plates for 24 hours, after which they were treated with various concentrations of the compounds for an additional 48 hours. After treatment, cell viability was assessed by incubating the cells with MTT solution, which results in the formation of formazan crystals. These crystals were dissolved in DMSO, and the absorbance was measured to determine cell viability.

[4] = test system: HaCaT cells; assay: Cell survival index (MTT assay and cell count) in HaCaT keratinocytes; assay type: cell-based, human; conditions: 48 h of incubation, cell survival index, n = 24, healthy control cells, read-out: IC50 ± SD (µM) HaCat
Experimental: HaCaT cells, human immortalized keratinocytes (kindly provided by Dr. Valeria Cicatiello at Italian National Research Council (CNR), Institute of Genetics and Biophysics), were maintained in a humidified 5% CO2 atmosphere at 37°C and grown in DMEM (Invitrogen) supplemented with 10% fetal bovine serum (FBS, Cambrex), L‐glutamine (2 mM), penicillin (100 units/mL, Sigma‐Aldrich), and streptomycin (100 μg/mL). Cells were seeded at a density between 2 and 4 × 10^4 cells/cm^2 and cultured to about 80%–90% confluence.^[ [66] ^] HaCaT cells provide ideal in vitro cell systems to study biocompatibility and toxicological cellular responses.
as §1, §2

[5] = test system: human recombinant mPGES-1; set-up: method as in earlier work; conditions: cited from earlier work
[6] = test system: mPGES-1 from A549 cells; set-up: method as in earlier work; conditions: cited from earlier work

Row | Structure (SMILES) | remaining activity at 10 µM [1] [%] | remaining activity at 10 µM [2] [%] | IC50 ([3]; Homo sapiens, HCT-116) [µM] | IC50 ([4]; Homo sapiens, HaCaT) [µM] | IC50 [2] [µM] | other results
1 | Cc1[nH]c(C(=O)Nc2ccc3ccccc3n2)cc1C(=O)c1ccccc1 [Compound 1b, 4‐benzoyl‐5‐methyl‐N‐(quinolin‐2‐yl)‐1H‐pyrrole‐2‐carboxamide] | ~55 | 71.8 ± 4.7 |  |  |  | Residual activity of mPGES-1, mean ± SD (%) [1]: 55.6 ± 2.9%
2 | CCc1ccccc1NC(=O)c1cc(C(=O)c2ccc3ccccc3c2)c(C)[nH]1 [Compound 2a, 4‐(2‐Naphthoyl)‐N‐(2‐ethylphenyl)‐5‐methyl‐1H‐pyrrole‐2‐carboxamide] | 83.4 ± 4 | 74.3 ± 3.6 |  |  |  | 
3 | Cc1[nH]c(C(=O)Nc2ccc(C(C)O)cc2)cc1C(=O)c1ccccc1 (racemic) [Compound 1d, (±) 4‐Benzoyl‐N‐[4‐(1‐hydroxyethyl)phenyl]‐5‐methyl‐1H‐pyrrole‐2‐carboxamide] |  | 93.4 ± 0.6 |  |  |  | 
4 | Cc1ccc(NC(=O)c2cc(C(=O)c3ccc4ccccc4c3)c(C)[nH]2)cc1O [Compound 2b, 4‐(2‐Naphthoyl)‐N‐(3‐hydroxy‐4‐methylphenyl)‐5‐methyl‐1H‐pyrrole‐2‐carboxamide] | 17.6 ± 0.3 | 21.7 ± 4.2 | 42 ± 1 | 31 ± 4 | 1.5 ± 0.2 | IC50 [1]: 3.3 ± 0.5 µM
5 | Cc1ccc(NC(=O)c2cc(C(=O)c3ccccc3)c(C)[nH]2)cc1C [Compound 1c, 4‐Benzoyl‐N‐(3,4‐dimethylphenyl)‐5‐methyl‐1H‐pyrrole‐2‐carboxamide] | 65.5 ± 3.7 | 47.7 ± 2.9 |  |  |  | 
6 | CCCCCCCCCCCC(=O)c1c(C)c(CCC(=O)O)n(C)c1C [I, 3-(4-dodecanoyl-1,3,5-trimethyl-1H-pyrrol-2-yl)propanoic acid] |  |  |  |  |  | Inhibition of human recombinant mPGES-1 at 1μM [%] [5]: 54±8 (n=7) %; Inhibition of mPGES-1 from A549 cells at 3.3 μM [%] [6]: 74±8 (n=5) %
7 | Cc1[nH]c(C(=O)Nc2cc(N)cc(C(F)(F)F)c2)cc1C(=O)c1ccccc1 [Compound 1f, N‐[3‐Amino‐5‐(trifluoromethyl)phenyl]‐4‐benzoyl‐5‐methyl‐1H‐pyrrole‐2‐carboxamide] | ~50 | 36.1 ± 5.1 | 25 ± 2 | 37 ± 3 | 5 ± 0.9 | Residual activity of mPGES-1, mean ± SD (%) [1]: 47.6 ±4.4%
8 | Cc1[nH]c(C(=O)Nc2ccc(Cl)c(CO)c2)cc1C(=O)c1ccc2ccccc2c1 [Compound 2d, 4‐(2‐Naphthoyl)‐N‐[4‐chloro‐3‐(hydroxymethyl)phenyl]‐5‐methyl‐1H‐pyrrole‐2‐carboxamide] | 21.5 ± 2.9 | 41.6 ± 3.1 | 39 ± 2 | 22 ± 2 | 7.6 ± 1 | IC50 [1]: 4.5 ± 1.3 µM
9 | Cc1[nH]c(C(=O)Nc2cc(Cl)cc(Cl)c2)cc1C(=O)c1ccccc1 [Compound 1e, 4‐benzoyl‐N‐(3,5‐dichlorophenyl)‐5‐methyl‐1H‐pyrrole‐2‐carboxamide] | 73.4 ± 5.2 | 86.9 ± 4.8 |  |  |  | 
10 | COc1ccc(NC(=O)c2cc(C(=O)c3ccc4ccccc4c3)c(C)[nH]2)cc1O [Compound 2c, 4‐(2‐Naphthoyl)‐N‐(3‐hydroxy‐4‐methoxyphenyl)‐5‐methyl‐1H‐pyrrole‐2‐carboxamide] | 30.4 ± 1.9 | 47.2 ± 2.5 | 44 ± 3 | 43 ± 2 | 6.3 ± 1.1 | IC50 [1]: 4 ± 1.1 µM
11 | N.N.[Cl][Pt][Cl] [Cisplatin, reference compound] |  |  |  |  |  | IC50 [3]: 9 ± 3 µM; IC50 [4]: 20 ± 3 µM
